Measured values: patent US10578610B2, “Peptide regulators of mitochondrial fusion and methods of use” (priority 2016, dated 2020)
Square brackets hold non-standard residues; d marks the D form. Ends that are not written are not given here. pS = N[C@@H](COP(=O)(O)O)C(=O)O

How the values were obtained:
WT MEFs and Mfn2 KO MEFs = experiment: Parkin recruitment and mitophagy induced by mitochondrial depolarization, adenoviral expression; format: cell-based, murine; conditions: data not shown
Method: (§1) MEFs or neurons were grown on chamber slides and infected with recombinant adenoviri for 48-72 hours unless otherwise indicated. MEFs were stained with MitoTracker Green (200 nM, Invitrogen M7514) and Blue Hoechst (10 mg/ml, Invitrogen H3570), with or without tetramethylrhodamine ethyl ester (TMRE; 200 nM, Invitrogen T-669). Neuronal mitochondria were labeled with adenoviral-expressed mitoGFP plus TMRE, or with adeno-mitoDsRed for time-lapse studies. Cover slips were loaded onto a chamber (Warner instrument, RC-40LP) in modified Krebs-Henseleit buffer (138 mM NaCl, 3.7 mM KCl, 1.2 mM KH2PO4, 15 mM Glucose, 20 mM HEPES and 1 mM CaCl2) at room temperature and visualized on a Nikon Ti Confocal microscope equipped with a 60×1.3 NA oil immersion objective. For mitophagy studies MEFs were stained with MitoTracker Green and infected with adeno-mcherry Parkin or stained with LysoTracker Deep Red (50 nM, Invitrogen L-7528); carbonylcyanide p-trifluoromethoxyphenylhydrazone (FCCP, 10 μM for 1 hour) was applied as a positive control. Mitochondrial fusion was measured at 2 and 6 hours after PEG-mediated cell fusion of MEFs treated 48 hours previously with adeno-mitoGFP or adeno-mitoDsRed (Chen et al., 2005, J Biol Chem, 280:26185-26192). Laser confocal fluorescence was excited with 561 nm (MitoTracker Green, GFP, FITC), 637 nm (TMRE, LysoTracker Red, mcherry-Parkin, MitoTracker Orange) or 408 nm (Blue Hoechst) laser diodes. Image analysis—Mitochondrial aspect ratio was calculated using automated edge detection and Image J software (Song et al., 2015, Cell Metab, 21:273-285). Mitochondrial depolarization was calculated as % of green mitochondria visualized on MitoTracker Green and TMRE merged images, expressed as green/(green+yellow mitochondria)×100. Parkin aggregation was calculated as % of cells with mitochondrial clumping of mcherry-Parkin (Song et al., 2015, Cell Metab, 21:273-285). Lysosomal engulfment of mitochondria was identified by colocalization of LysoTracker Red and MitoTracker Green (Song et al., 2015, Cell Metab, 21:273-285).
Also studied were the effects of the adenoviral expression of WT Mfn2, HR1 peptide, adeno367-384 and its glycine variant and adeno398-418 and its glycine variant on Parkin recruitment and mitophagy induced by mitochondrial depolarization which are also impaced by the Mfn1 and Mfn2 proteins (Chen et al., 2013, Science, 340:471-475; Gong G. et al., 2015, Science, 350:aad2459). These studies were performed using WT MEFs and Mfn2 KO MEFs.

[1] = test system: murine embryonic fibroblasts (MEFs) expressing Mfn1 and/or Mfn2; experiment: Mitochondrial aspect ratio and polarization in MEFs infected with adenovirus expressing Mfn2 HR1 peptides; format: cell-based; conditions: adenoviral expression; for mitochondrial aspect ratio (length/width; an index of mitochondrial fusion): MOI 100, WT and Mfn2 null MEFs, vs Ad-Null/β-gal control; for mitochondrial aspect ratio (elongation/shortening) compared with adeno-HR1 or Mfn deletion: WT, Mfn1 KO, Mfn2 KO, Mfn1/Mfn2 DKO MEFs; for mitochondrial polarization status: WT MEFs, TMRE
Method: The effect of each of the peptides listed in Table 1 on mitochondrial function was tested in a cell culture system using murine embryonic fibroblasts (MEFs) as described in Example 4. Wild-type MEFs express both Mfn1 and Mfn2. Also used were MEFs in which the Mfn2 gene was knocked out (MEF Mfn2 KO). The details of the experiments are provided in Example 3. In these experiments, the MEFs were infected with adenovirus (AV) engineered to express one of the peptides or full-length Mfn2 as a control. Mitochondrial fusion activity was measured using confocal microscopy and quantitative analysis of the mitochondrial aspect ratio which is a measurement of mitochondria length/width and is an accepted index of mitochondrial fusion. […] As with all confocal microscopic images provided herein, treated cells were stained to allow quantitative assessment of mitochondrial aspect ratio and polarization using methods routine in the art. In Examples 4-8, MitoTracker Green is used to stain the mitochondria to allow measurement of mitochondrial length and width to determine the aspect ratio. Red TMRE is used to measure mitochondrial polarization (membrane potential). Blue Hoechst stains nuclei.
Empty adenovirus (Ad-CMV-Null; #1300) and adenoviri expressing β-Galactosidase (Ad-CMV-b-Gal; #1080) or Cre recombinase (Ad-CMV-iCre; #1045) were from Vector Biolabs. Adenoviral expression vectors for hMfn2 HR1 and the minipeptides and Gly or Pro mutants were generated and amplified using standard methods. Adenoviral vectors were added to MEFs at 50% confluence at an MOI of 100.
as §1
First, an adenovirus which recombinantly expressed the hMfn2 HR1 binding fragment (adeno HR1) was introduced into MEFs. It was reasoned that competition of the intra-molecular HR1-HR2 interaction by free HR1 fragment would increase mitochondrial fusion. […]

WT MEFs = format: cell-based, murine; conditions: WT MEFs; varying concentrations / time course
Method: as §1
TAT47-57 is a well-characterized “carrier” peptide able to promote active cellular peptide uptake. Specifically, a linear peptide was constructed in which the hMfn2 modulatory peptide was linked by a peptide bond at its C-terminus to a Gly-Gly dipeptide linker whose C-terminus was linked by a peptide bond to the TAT47-57 peptide having the sequence YGRKKRRQRRR (SEQ ID NO:25). The resultant linear fusion-promoting peptide conjugate comprises the sequence […] (SEQ ID NO:23). The fusion-inhibiting linear peptide has the sequence […] (SEQ ID NO:24). Except for dose-response studies, stock concentrations of TAT-minipeptides in sterile water were applied to cultured MEFs at a dilution factor of 1:2000 to achieve final concentrations of 1 or 5 μM.
The functional consequences of the Mfn2 HR1-derived peptides were defined after synthesizing them as C-terminal TAT47-57 conjugates to promote active cellular uptake. Mitochondrial fusion can be detected by mixing of organellar contents (Chen et al., 2005, J Biol Chem, 280:26185-26192). […] (FIG. 8A, scale bar is 20 microns). Mitochondrial aspect ratio changed in parallel with mitochondrial mixing (FIG. 8B).
Experiments were performed with these shortened variants fused to a carrier peptide via a linker according to the methods described in Example 5 above. Wildtype MEFs were treated with varying concentrations of peptide fusion constructs described in Table 4 and mitochondrial aspect ratios determined. A dose response curve for TetherX-N and -C variants are shown in FIG. 17A (squares are data for TetherX-N and circles are for TetherX-C). The dose response curve for GoFuse-N and -C variants are shown in FIG. 17B (squares are for GoFuse-N and circles are for GoFuse-C).

mitochondrial fusion = experiment: Alanine scanning of TetherX-1 and Go-Fuse peptides, effect on mitochondrial fusion in cells; format: cell-based; conditions: variants linked to TAT carrier via GG linker; compared with SEQ ID NO:48 or 50
Method: Alanine scanning mutagenesis experiments were performed in order to identify amino acids critical for the function of the TetherX-1 and Go-Fuse peptides. Alanine was individually substituted for each amino acid in the Tetherx-1 and Go-Fuse peptides and the modified peptides, linked to the TAT carrier peptide via a GG linker, were administered to cells and the effect on mitochondrial fusion measured. Table 5 lists Go-Fuse variants which maintained fusion-promoting activity (activity similar to that of SEQ ID NO:48 or 50) while Table 6 lists variant Go-Fuse peptides in which substitutions had no effect (substitution of a non-critical amino acid).

Substance | Parkin recruitment and mitophagy induced by mitochondrial depolarization (WT MEFs and Mfn2 KO MEFs) | mitochondrial aspect ratio (length/width; an index of mitochondrial fusion) [1] | mitochondrial aspect ratio (effect of TAT fusion construct) (WT MEFs) | other results
FQNFERRFEECISQSAVKTKFEQHTVRAKQIAEAVRLIMDSLHMAAREQQVYCEEMREERQDRLKFIDKQLELLAQDYKLRIKQ [adeno-HR1] | No significant effects | increased mitochondrial aspect ratio | – | mitochondrial aspect ratio (elongation/shortening) compared with adeno-HR1 or Mfn deletion [1]: altered mitochondrial aspect ratio
GELLAQDYKLRGGYGRKKRRQRRR [TetherX-C] | – | – | provoked mitochondrial fragmentation | –
GIMD(p)SLHMAARGGYGRKKRRQRRR (GIMD[pS]LHMAARGGYGRKKRRQRRR) [SEQ ID NO:54] | – | – | – | fusion-promoting activity (Mfn agonist activity) of Go-Fuse variants (mitochondrial fusion): statistically active
GIMDSLHMAARGGYGRKKRRQRRR [GoFuse-C] | – | – | induced mitochondrial elongation | –
QDRLKFIDKQGELLAQDYKLR [adeno398-418Gly, Mfn2 HR1 minipeptide, expressed in cells from adenoviral vector] | did not adversely impact | potently suppressed fusion | – | mitochondrial polarization status [1]: did not adversely impact mitochondrial polarization status
QDRLKFIDKQGGYGRKKRRQRRR [TetherX-N, N-terminal fragment of TetherX-1 fused to TAT carrier, as tested] | – | – | exhibited little activity | –
QDRLKFIDKQLELLAQDYKLR (listed as Homo sapiens) [adeno398-418] | No significant effects | – | – | –
QIAEAVRGGYGRKKRRQRRRR [GoFuse-N, N-terminal fragment of GoFuse-1 fused to TAT carrier, as tested] | – | – | lacked fusion-promoting activity | –
QIAEAVRGIMDSLHMAAR [adeno367-384Gly, Mfn2 HR1 minipeptide, expressed in cells from adenoviral vector] | did not adversely impact | promoted fusion | – | mitochondrial polarization status [1]: did not adversely impact mitochondrial polarization status; mitochondrial aspect ratio (elongation/shortening) compared with adeno-HR1 or Mfn deletion [1]: comparable to that produced by adeno-HR1
QIAEAVRLIMDSLHMAAR (listed as Homo sapiens) [adeno367-384] | No significant effects | – | – | –
RQVSTAMAEEIRRLSVLVDDY (listed as Homo sapiens) [adeno428-448, non-HR1 control peptide] | – | did not affect mitochondrial fusion | – | –
